{"source": "patent US8377990B2", "about": "“Conjugates comprising a psychotropic drug or a GABA agonist and an organic acid and their use in treating pain and other CNS disorders” (Ramot at Tel-Aviv University Ltd., priority 2006, dated 2013)", "key": {"[1]": {"system": "Male Balb-c mice", "test": "Hot plate test, latency of the nociceptive reaction to heat", "type": "in vivo", "details": "for antinociceptive activity (latency to heat): entire period"}, "[2]": {"system": "Wistar rats", "details": "high doses of fluoxetine; Omar et al. Pharmacol. Res. 49 (2004) 119-131; cited from earlier work"}, "[3]": {"details": "treated orally for 5 consecutive days, AN-214 0.2 mg/kg or equivalent molar dose of AN-216, FIG. 7"}}, "note": "“Also recorded” adds a separate entry of the source.", "data": [{"compound": "CNCCC(Oc1ccc(C(F)(F)F)cc1)c1ccccc1", "note": "(centres unmarked) [fluoxetine]", "values": [{"measurement": "antinociceptive effect (latency to heat) during repeated treatment", "setting": "[1]; repeated oral treatment daily for 11 days, fluoxetine 10 mg/kg or equimolar conjugate, FIGS. 5B-E", "result": "significantly better antinociceptive effect compared to untreated animals"}, {"measurement": "response to heat sensation prior to daily treatment", "setting": "[1]; repeated oral treatment daily for 11 days, fluoxetine 10 mg/kg or equimolar conjugate, tested at days 3, 7, 9 and 11, vs vehicle, FIG. 5A", "result": "A delay was noted only on day 11"}, {"measurement": "oedema response in rats", "setting": "[2]", "result": "previously shown to reduce oedema response in rats"}]}, {"compound": "CNCCC=C1c2ccccc2CCc2ccccc21", "note": "[nortriptyline]", "values": [{"measurement": "latency of response to heat", "setting": "[1]; p.o. 0.25 mg/kg nortriptyline or equimolar conjugate (0.32 mg/kg), 4 hours following treatment, vs untreated mice, FIG. 2A", "result": "increased significantly the latency of response compared to untreated mice"}, {"measurement": "latency of response to heat, onset", "setting": "[1]; p.o. 0.5 mg/kg nortriptyline, time course, vs vehicle, FIG. 2B", "result": "significant latency, (compared to vehicle treated animals), after 4 hours only"}, {"measurement": "latency of response to heat", "setting": "[1]; single p.o. dose, 0.5 mg/kg nortriptyline or equimolar dose of conjugate, two hours after administration, FIG. 1, 0.5 mg/kg", "result": "significantly less effective; also recorded: did not differ significantly (p>0.05) from control mice"}, {"measurement": "latency of response to heat", "setting": "[1]; single p.o. dose, 4.5 mg/kg nortriptyline or equimolar dose of conjugate, two hours after administration, vs vehicle, p<0.05, FIG. 1", "result": "significant delay in the response compared to control mice"}]}, {"compound": "2-Propyl-pentanoic acid (valproic acid) 4-aminobutyryloxymethyl ester hydrochloride [AN-216]", "values": [{"measurement": "antinociceptive activity (latency to heat)", "setting": "[1]; [3]", "result": "no antinociceptive activity was detected"}]}, {"compound": "NCCCC(=O)O", "note": "[GABA, γ-aminobutyric acid]", "values": [{"measurement": "latency in response to heat sensation", "setting": "[1]; GABA 2.39 mg/kg, >10-folds higher dose than the conjugate, FIG. 6", "result": "had no activity"}, {"measurement": "antinociceptive activity (latency to heat)", "setting": "[1]; GABA orally for 5 consecutive days, three different doses, FIG. 8", "result": "No antinociceptive activity was detected"}]}, {"compound": "Cl.NCCCC(=O)OCOC(=O)CCCN", "note": "[AN-214, 4-Amino-butyric acid 4-amino-butyryloxymethyl ester dihydrochloride]", "values": [{"measurement": "antinociceptive activity (latency to heat)", "setting": "[1]; [3]", "result": "no antinociceptive activity was detected"}]}]}
